# In PubChem BioAssay (NCI):
#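 Method: 48-hour compound exposure of cells in 96-well plates, five concentrations, linear interpolation of endpoints. GI50 is the concentration that inhibits growth by half. The concentration for full growth arrest is given as TGI.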
# Experiments:
# Test in all cases: DTP human tumour cell line panel, 48 h
# [1] = tested on: LXFL 529 NSCLC
# [2] = tested on: MALME-3M melanoma
# [3] = tested on: OVCAR-5 ovarian
# [4] = tested on: SNB-75 CNS
# [5] = tested on: DLD-1 colon
# [6] = tested on: SNB-78 CNS
# [7] = tested on: SN12C renal
# [8] = tested on: U251 CNS
# [9] = tested on: SNB-19 CNS
# [10] = tested on: EKVX NSCLC
# [11] = tested on: HT29 colon
# [12] = tested on: NCI-H23 lung
# [13] = tested on: RPMI-8226 leukemia
# [14] = tested on: KM20L2 colon
# [15] = tested on: A549 NSCLC
# [16] = tested on: RXF 393 renal
# [17] = tested on: HCT-116 colon
# [18] = tested on: UACC-62 melanoma
# [19] = tested on: TK-10 renal
# [20] = tested on: NCI-H460 lung
# [21] = tested on: ACHN renal
# [22] = tested on: SK-MEL-2 melanoma
# [23] = tested on: UO-31 renal
# [24] = tested on: KM12 colon
# [25] = tested on: CAKI-1 renal
# [26] = tested on: M14 melanoma
# [27] = tested on: LOX IMVI melanoma
# [28] = tested on: HOP-92 NSCLC
# [29] = tested on: SK-OV-3 ovarian
# [30] = tested on: HCC-2998 colon
# [31] = tested on: SK-MEL-28 melanoma
# [32] = tested on: DMS 273 small cell lung
# [33] = tested on: IGROV1 ovarian
# [34] = tested on: SF-268 CNS
# [35] = tested on: NCI-H226 lung
# [36] = tested on: K-562 leukemia
# [37] = tested on: OVCAR-4 ovarian
# [38] = tested on: HOP-18 NSCLC
# [39] = tested on: CCRF-CEM leukemia
# [40] = tested on: OVCAR-8 ovarian
# [41] = tested on: SW-620 colon
# [42] = tested on: A498 renal
# [43] = tested on: HCT-15 colon
# [44] = tested on: COLO 205 colon
# [45] = tested on: 786-0 renal
# [46] = tested on: UACC-257 melanoma
# [47] = tested on: NCI-H522 lung
structure (smiles),measurement,setting,value
O=c1c(O)c(O)c1=O.[NH2-].[NH2-].[NH2-].[NH2-].[NH2-].[Ru+5],GI50,[1],> 100 µM
same,TGI,[1],> 100 µM
same,GI50,[2],> 100 µM
same,TGI,[2],> 100 µM
same,GI50,[3],> 100 µM
same,TGI,[3],> 100 µM
same,GI50,[4],> 100 µM
same,TGI,[4],> 100 µM
same,GI50,[5],> 100 µM
same,TGI,[5],> 100 µM
same,GI50,[6],> 100 µM
same,TGI,[6],> 100 µM
same,GI50,[7],> 100 µM
same,TGI,[7],> 100 µM
same,GI50,[8],> 100 µM
same,TGI,[8],> 100 µM
same,GI50,[9],> 100 µM
same,TGI,[9],> 100 µM
same,GI50,[10],> 100 µM
same,TGI,[10],> 100 µM
same,GI50,[11],> 100 µM
same,TGI,[11],> 100 µM
same,GI50,[12],> 100 µM
same,TGI,[12],> 100 µM
same,GI50,[13],> 100 µM
same,TGI,[13],> 100 µM
same,GI50,[14],> 100 µM
same,TGI,[14],> 100 µM
same,GI50,[15],> 100 µM
same,TGI,[15],> 100 µM
same,GI50,[16],> 100 µM
same,TGI,[16],> 100 µM
same,GI50,[17],> 100 µM
same,TGI,[17],> 100 µM
same,GI50,[18],> 100 µM
same,TGI,[18],> 100 µM
same,GI50,[19],> 100 µM
same,TGI,[19],> 100 µM
same,GI50,[20],> 100 µM
same,TGI,[20],> 100 µM
same,GI50,[21],> 100 µM
same,TGI,[21],> 100 µM
same,GI50,[22],> 100 µM
same,TGI,[22],> 100 µM
same,GI50,[23],> 100 µM
same,TGI,[23],> 100 µM
same,GI50,[24],> 100 µM
same,TGI,[24],> 100 µM
same,GI50,[25],> 100 µM
same,TGI,[25],> 100 µM
same,GI50,[26],> 100 µM
same,TGI,[26],> 100 µM
same,GI50,[27],> 100 µM
same,TGI,[27],> 100 µM
same,GI50,[28],> 100 µM
same,TGI,[28],> 100 µM
same,GI50,[29],> 100 µM
same,TGI,[29],> 100 µM
same,GI50,[30],> 100 µM
same,TGI,[30],> 100 µM
same,GI50,[31],> 100 µM
same,TGI,[31],> 100 µM
same,GI50,[32],> 100 µM
same,TGI,[32],> 100 µM
same,GI50,[33],> 100 µM
same,TGI,[33],> 100 µM
same,GI50,[34],> 100 µM
same,TGI,[34],> 100 µM
same,GI50,[35],> 100 µM
same,TGI,[35],> 100 µM
same,GI50,[36],> 100 µM
same,TGI,[36],> 100 µM
same,GI50,[37],> 100 µM
same,TGI,[37],> 100 µM
same,GI50,[38],> 100 µM
same,TGI,[38],> 100 µM
same,GI50,[39],> 100 µM
same,TGI,[39],> 100 µM
same,GI50,[40],> 100 µM
same,TGI,[40],> 100 µM
same,GI50,[41],> 100 µM
same,TGI,[41],> 100 µM
same,GI50,[42],> 100 µM
same,TGI,[42],> 100 µM
same,GI50,[43],> 100 µM
same,TGI,[43],> 100 µM
same,GI50,[44],> 100 µM
same,TGI,[44],> 100 µM
same,GI50,[45],> 100 µM
same,TGI,[45],> 100 µM
same,GI50,[46],> 100 µM
same,TGI,[46],> 100 µM
same,GI50,[47],> 100 µM
same,TGI,[47],> 100 µM
